# ChEMBL document CHEMBL3885861, “Open TG-GATES”
# Species on record: Rattus norvegicus
# Assay: Open TG-GATES - Regimen: Single
# Assay type: toxicity, organism-based, Sprague-Dawley
# Design: regimen Single, gender Male, age 6 weeks
# Conditions: in vivo, po, route gavage; for PL / RALB / TBIL / TC / TG / TP / gamma-GTP / A/G / ALP / ALT / AST / BUN / CRE / Ca / Cl / DBIL / GLC / IP / K / LDH / Na: tissue Plasma
# [1] = 15 mg/kg, 3 h, dose level Middle
# [2] = 15 mg/kg, 3 h, tissue Blood, dose level Middle
# [3] = 15 mg/kg, 3 h, tissue Kidney, dose level Middle
# [4] = 15 mg/kg, 6 h, tissue Blood, dose level Middle
structure (smiles),measurement,setting,value
COc1ccc2c(c1)c(CC(=O)O)c(C)n2C(=O)c1ccc(Cl)cc1 [INDOMETHACIN],PL,"5 mg/kg, 24 h, dose level High",133.4 mg/dL
same,RALB,"5 mg/kg, 24 h, dose level High",3.7 g/dL
same,TBIL,"5 mg/kg, 24 h, dose level High",0.3 mg/dL
same,TC,"5 mg/kg, 24 h, dose level High",77.4 mg/dL
same,TG,"5 mg/kg, 24 h, dose level High",65.2 mg/dL
same,TP,"5 mg/kg, 24 h, dose level High",5.6 g/dL
same,gamma-GTP,"5 mg/kg, 24 h, dose level High",1.4 IU/L
same,A/G,"5 mg/kg, 24 h, dose level Low",1.5
same,ALP,"5 mg/kg, 24 h, dose level Low",830.8 IU/L
same,ALT,"5 mg/kg, 24 h, dose level Low",35.8 IU/L
same,AST,"5 mg/kg, 24 h, dose level Low",70 IU/L
same,BUN,"5 mg/kg, 24 h, dose level Low",13.2 mg/dL
same,CRE,"5 mg/kg, 24 h, dose level Low",0.4 mg/dL
same,Ca,"5 mg/kg, 24 h, dose level Low",10.7 mg/dL
same,Cl,"5 mg/kg, 24 h, dose level Low",103.2 meq/L
same,DBIL,"5 mg/kg, 24 h, dose level Low",0.06 mg/dL
same,GLC,"5 mg/kg, 24 h, dose level Low",189.4 mg/dL
same,IP,"5 mg/kg, 24 h, dose level Low",7.6 mg/dL
same,K,"5 mg/kg, 24 h, dose level Low",3.9 meq/L
same,LDH,"5 mg/kg, 24 h, dose level Low",234.2 IU/L
same,Na,"5 mg/kg, 24 h, dose level Low",141.6 meq/L
same,PL,"5 mg/kg, 24 h, dose level Low",144.6 mg/dL
same,RALB,"5 mg/kg, 24 h, dose level Low",3.3 g/dL
same,TBIL,"5 mg/kg, 24 h, dose level Low",0.1 mg/dL
same,TC,"5 mg/kg, 24 h, dose level Low",73.6 mg/dL
same,TG,"5 mg/kg, 24 h, dose level Low",82.8 mg/dL
same,TERMINAL_BW,[1],223.8 g
same,APTT,[2],19.8 s
same,Bas,[2],0.6%
same,Eos,[2],0.4%
same,Fbg,[2],232.4 mg/dL
same,Hb,[2],13.8 g/dL
same,Ht,[2],37.8%
same,Lym,[2],74.8%
same,MCH,[2],22.8 pg
same,MCHC,[2],36.5%
same,MCV,[2],62.5 fL
same,Mono,[2],3.4%
same,Neu,[2],19.6%
same,PT,[2],11.6 s
same,Plat,[2],132.9 x10_4/uL
same,RBC,[2],605.2 x10_4/ul
same,Ret,[2],8.5%
same,WBC,[2],104.8 x10_2/uL
same,KIDNEY_L,[3],0.9 g
same,KIDNEY_R,[3],0.9 g
same,KIDNEY_TOTAL,[3],1.9 g
same,LIVER,"15 mg/kg, 3 h, tissue Liver, dose level Middle",10.3 g
same,A/G,[1],1.5
same,ALP,[1],827 IU/L
same,ALT,[1],36.2 IU/L
same,AST,[1],73.6 IU/L
same,BUN,[1],13 mg/dL
same,CRE,[1],0.4 mg/dL
same,Ca,[1],10.8 mg/dL
same,Cl,[1],102.6 meq/L
same,DBIL,[1],0.072 mg/dL
same,GLC,[1],209.2 mg/dL
same,IP,[1],9.8 mg/dL
same,K,[1],4.1 meq/L
same,LDH,[1],219.2 IU/L
same,Na,[1],141.2 meq/L
same,PL,[1],151.6 mg/dL
same,RALB,[1],3.3 g/dL
same,TBIL,[1],0.1 mg/dL
same,TC,[1],84.8 mg/dL
same,TG,[1],64.8 mg/dL
same,TP,[1],5.5 g/dL
same,gamma-GTP,[1],1 IU/L
same,TERMINAL_BW,"15 mg/kg, 6 h, dose level Middle",220.7 g
same,APTT,[4],19 s
same,Bas,[4],0%
same,Eos,[4],0.6%
same,Fbg,[4],224 mg/dL
